Patent US20210235699A1, “Adjuvant Compositions Comprising a Tetramethylguanidine and a 4-Isothiazolin-3-One” (Lonza, LLC, priority 2018, published 2021)
Structures can show the parent of a compound that is named as a salt. Marks after values point to notes of the source that are not given here.

Assays:
[1] = tested on: combined bacterial test inoculum: Acinetobacter calcoaceticus, Escherichia coli, Pseudomonas aeruginosa, Enterobacter cloacae; assay: Bacterial challenge test (ASTM D2574-97, modified) in standard water based interior paint; assay type: cell-based; set-up: key to Streak plate rank, 1st inoculation 24 h / Streak plate rank, 1st inoculation 72 h / Streak plate rank, 2nd inoculation 72 h / Streak plate rank, 3rd inoculation 24 h: 0 = no growth; 1 = 1-5 Colony Forming Unit (cfu); 2 = 6-15 cfu; 3 = 16-30 cfu; 4 = 31-45 cfu; 5 = greater than 45 cfu; 5c = Confluent Growth; conditions: for Dilution plate count, 3rd inoculation 72 h / Streak plate rank, 3rd inoculation 24 h: inoculum 2.50%; for Streak plate rank, 2nd inoculation 72 h: inoculum 5%; for Streak plate rank, 1st inoculation 24 h / Streak plate rank, 1st inoculation 72 h: inoculum 10%; for effect of guanidine on bactericidal activity of 4-isothiazolin-3-ones (in words): in combination with BIT and BBIT, Tables 3 and 5
Procedure: (§1) The following bacterial and fungal challenge tests were performed to ascertain whether low concentrations of 4-isothiazolin-3-one biocidal active compounds, pyrithione, coumarin or guanidine adjuvant are sufficient to prevent microbial contamination of final products when deliberately inoculated with spoilage microbes.
(§2) The tests were performed according to ASTM standard D2574-97 (Standard Test Method for Resistance of Emulsion Paints in the Container to Attack by Microorganisms, ASTM International, West Conshohocken, Pa.), with higher inoculation volumes and frequency. A standard water based interior paint was used as the test substrate. Sample sizes of 20 g test substrate were used and the test samples were prepared in a sterile 30 mL square Nalgene bottle.
The bacteria were grown on pH 5, 7, or 9 Trypticase Soy Agar (TSA) lawns. The bacteria were grown individually on TSA and harvested by using sterile buffered water. The bacterial lawns were washed off with 30 mL of sterile water and an equal volume of each individual cell suspension was withdrawn from each serum bottle to make a combined cell suspension. Combined bacterial suspension were about 10^7 cfu/mL, which provides about 10^6 cfu/mL in the sample.
(§3) The following microorganisms were used for inoculation of the tested samples:
For the bacterial challenge testing, each sample was inoculated with a combined bacterial test inoculum volume equivalent to 10% of the total initial sample volume for the initial inoculation, 5% of the total initial sample volume for the second inoculation and 2.5% of the total initial sample volume for the third inoculation. Inoculum volumes for the fungal challenge tests were 2%, 1% and 0.5% of the total initial sample volume, respectively. Samples were inoculated every 96 h.
(§4) Concentrations of biocidal active compounds and adjuvants refer to the final concentration in the test samples prior to the first inoculation.
(§5) The efficacy of the added agent in each sample was monitored by means of a streak plate test after 24 hours (all inoculations) and 72 hours of inoculation (first and second inoculation). At 72 hours of the third inoculation performed, a dilution plate count was performed in order to obtain a quantitative measurement of contamination (cfu/mL). A count of less than 10 colony forming units per mL ([…]) is considered to show no measurable contamination. For the streak plate tests, bacterial samples were streaked on Tryptic Soy Agar (TSA) and incubated for 48 hours at 30° C. before reading. Fungal samples were streaked on Potato Dextrose Agar (PDA) and incubated for 5 days at 25° C. before reading.
(§6) The streak plates were ranked from 0-5c according to the degree of microbial growth:
(§7) The challenge tests were performed as described above.

[2] = tested on: fungal test inoculum: Aspergillus niger, Penicillium funiculosum, Candida albicans; assay: Fungal challenge test (ASTM D2574-97, modified) in standard water based interior paint; assay type: cell-based; set-up: key to Streak plate rank, 2nd inoculation 72 h / Streak plate rank, 1st inoculation 72 h / Streak plate rank, 1st inoculation 24 h / Streak plate rank, 2nd inoculation 24 h / Streak plate rank, 3rd inoculation 24 h: 0 = no growth; 1 = 1-5 Colony Forming Unit (cfu); 2 = 6-15 cfu; 3 = 16-30 cfu; 4 = 31-45 cfu; 5 = greater than 45 cfu; 5c = Confluent Growth; conditions: for Dilution plate count, 3rd inoculation 72 h / Streak plate rank, 3rd inoculation 24 h: inoculum 0.50%; for effect of guanidine on fungicidal activity of 4-isothiazolin-3-ones (in words): in combination with BIT and BBIT, Tables 4 and 6
Procedure: as §1, §2
Fungal lawns were grown on Potato Dextrose Agar (PDA) or Sabouraud Dextrose Agar (SAB). Individual fungal spore suspensions were harvested by adding 10 mL of sterile 0.05% Triton X to fungal lawns. The lawns were then gently agitated by rubbing a sterile swab on the lawn, being careful not to puncture the agar. The liquid was then aseptically transferred to a sterile bottle containing sterile glass beads. The top of the bottle was closed and the bottle shaken vigorously to break up any chunks in the suspension. The shaken spore suspension was decanted through sterile fibers into another sterile bottle. The decanted spore suspension was counted using a hemocytometer. Once the spore counts were determined, each suspension was diluted in order to obtain 10^6 spore/mL. Each diluted fungal suspension was poured into a sterile container.
as §3
For the bacterial challenge testing, each sample was inoculated with a combined bacterial test inoculum volume equivalent to 10% of the total initial sample volume for the initial inoculation, 5% of the total initial sample volume for the second inoculation and 2.5% of the total initial sample volume for the third inoculation. […] Samples were inoculated every 96 h.
as §4, §5, §6, §7

## CCCCn1sc2ccccc2c1=O [BBIT, N-(n-butyl)-1,2-benzisothiazolin-3-one]
[1]; 25 ppm
  Dilution plate count, 3rd inoculation 72 h: 8.3 × 10^6 cfu/mL
  Streak plate rank, 3rd inoculation 24 h: 5c
  Streak plate rank, 2nd inoculation 72 h: 5c
  Streak plate rank, 1st inoculation 24 h: 5c
  Streak plate rank, 1st inoculation 72 h: 5c
[1]; 50 ppm
  Dilution plate count, 3rd inoculation 72 h: 6.0 × 10^6 cfu/mL
  Streak plate rank, 3rd inoculation 24 h: 5c
  Streak plate rank, 2nd inoculation 72 h: 5c
  Streak plate rank, 1st inoculation 24 h: 5c
  Streak plate rank, 1st inoculation 72 h: 5c
[1]; 100 ppm
  Dilution plate count, 3rd inoculation 72 h: 5.6 × 10^6 cfu/mL
  Streak plate rank, 3rd inoculation 24 h: 5c
  Streak plate rank, 2nd inoculation 72 h: 5c
  Streak plate rank, 1st inoculation 24 h: 5c
  Streak plate rank, 1st inoculation 72 h: 5c
[2]; 25 ppm
  Dilution plate count, 3rd inoculation 72 h: 1.0 × 10^1 cfu/mL
  Streak plate rank, 3rd inoculation 24 h: 2 (2 = 6-15 cfu)
[2]; 25 ppm, inoculum 1%
  Streak plate rank, 2nd inoculation 72 h: 0
[2]; 25 ppm, inoculum added was 5%
  Streak plate rank, 1st inoculation 24 h: 4* (4 = 31-45 cfu)
  Streak plate rank, 1st inoculation 72 h: 1* (1 = 1-5 Colony Forming Unit (cfu))
[2]; 50 ppm
  Dilution plate count, 3rd inoculation 72 h: <10 cfu/mL
  Streak plate rank, 3rd inoculation 24 h: 1 (1 = 1-5 Colony Forming Unit (cfu))
[2]; 50 ppm, inoculum 1%
  Streak plate rank, 2nd inoculation 72 h: 0
[2]; 50 ppm, inoculum added was 5%
  Streak plate rank, 1st inoculation 24 h: 3* (3 = 16-30 cfu)
  Streak plate rank, 1st inoculation 72 h: 1* (1 = 1-5 Colony Forming Unit (cfu))
[2]; 100 ppm
  Dilution plate count, 3rd inoculation 72 h: <10 cfu/mL
  Streak plate rank, 3rd inoculation 24 h: 1 (1 = 1-5 Colony Forming Unit (cfu))
[2]; 100 ppm, inoculum 1%
  Streak plate rank, 2nd inoculation 72 h: 0
[2]; 100 ppm, inoculum added was 5%
  Streak plate rank, 1st inoculation 24 h: 4* (4 = 31-45 cfu)
  Streak plate rank, 1st inoculation 72 h: 1* (1 = 1-5 Colony Forming Unit (cfu))

## O=c1ccc2ccccc2o1 [Coumarin]
[1]; 500 ppm
  Dilution plate count, 3rd inoculation 72 h: 3.5 × 10^6 cfu/mL
  Streak plate rank, 3rd inoculation 24 h: 5c
  Streak plate rank, 2nd inoculation 72 h: 5c
  Streak plate rank, 1st inoculation 24 h: 5c
  Streak plate rank, 1st inoculation 72 h: 5c
[1]; used individually, Table 1
  bactericidal activity (in words): no bactericidal activity
[2]; 500 ppm
  Dilution plate count, 3rd inoculation 72 h: 1.1 × 10^2 cfu/mL
  Streak plate rank, 3rd inoculation 24 h: 4 (4 = 31-45 cfu)
[2]; 500 ppm, inoculum 1%
  Streak plate rank, 2nd inoculation 72 h: 2 (2 = 6-15 cfu)
[2]; 500 ppm, inoculum 2%
  Streak plate rank, 1st inoculation 24 h: 3 (3 = 16-30 cfu)
  Streak plate rank, 1st inoculation 72 h: 3 (3 = 16-30 cfu)

## CCCCCCN(CCCCCC)C(=N)N.I [N,N-dihexylguanidine HI]
[1]
  effect of guanidine on bactericidal activity of 4-isothiazolin-3-ones (in words): not achieved
[2]
  effect of guanidine on fungicidal activity of 4-isothiazolin-3-ones (in words): not achieved

## [Na+].[O-][n+]1ccccc1[S-] [NaPT, sodium pyrithione]
[1]; 80 ppm
  Dilution plate count, 3rd inoculation 72 h: 2.2 × 10^7 cfu/mL
  Streak plate rank, 3rd inoculation 24 h: 5c
  Streak plate rank, 2nd inoculation 72 h: 5c
  Streak plate rank, 1st inoculation 24 h: 5c
  Streak plate rank, 1st inoculation 72 h: 5c
[2]; 80 ppm
  Dilution plate count, 3rd inoculation 72 h: <10 cfu/mL
  Streak plate rank, 3rd inoculation 24 h: 0
[2]; 80 ppm, inoculum 1%
  Streak plate rank, 2nd inoculation 24 h: 0
  Streak plate rank, 2nd inoculation 72 h: 0
[2]; 80 ppm, inoculum 2%
  Streak plate rank, 1st inoculation 24 h: 0
  Streak plate rank, 1st inoculation 72 h: 0

## CNC(=N)N [methylguanidine HCl, Methylguanidine HCl]
[1]
  effect of guanidine on bactericidal activity of 4-isothiazolin-3-ones (in words): not achieved
[2]
  effect of guanidine on fungicidal activity of 4-isothiazolin-3-ones (in words): not achieved
